Data reported in patent publication US7022319B1, “Vectors carrying therapeutic genes encoding antimicrobial peptides for gene therapy” (GSF - Forschungszentrum fuer Umwelt und Gesundheit GmbH, priority 1995, dated 2006).

Legend:
cancer = settings: purified peptide given to cells in culture; cited from earlier work
HIV = settings: purified peptide given to cells in culture; cited from earlier work
mammalian cells = settings: cited from earlier work
bacteria = settings: cited from earlier work
[1] = test system: variety of tumour cell lines; settings: cited from earlier work
MMTV LTR = assay: MMTV LTR-luciferase reporter supertransfected into cells carrying PreProCecropin or PreProMelittin; assay type: cell-based, Mouse Mammary Tumour Virus; settings: two different MMTV LTRs; gene under control of an MLV promoter; FIGS. 13A-13B
Text: A similar experiment to that of FIGS. 11 and 12 can be seen in FIGS. 13A–13B whereby two different MMTV LTR's controlling the expression of a luciferase reporter gene (Wintersberger et al., Proc. Natl. Acad. Sci. USA, 92:2745–2749) were separately supertransfected into cells carrying either PreProCecropin or PreProMelittin under control of an MLV promoter.

[2] = test system: human bladder carcinoma derived cell line, EJ; assay: Tumorigenicity in nude mice of EJ cell clones carrying melittin or cecropin expression constructs; assay type: in vivo; settings: EJ cell clones carrying the gene, injected into nude mice; FIGS. 9A-9G and 10A-10F
Text: EJ cells were transfected with p125.CercA and the clones expressing neomycin resistance were isolated. Six clones were isolated: Cecropin A1.4, Cecropin A1.7, Cecropin A1.8, Cecropin A10.3, Cecropin A10.4, and Cecropin A10.8.
Similarly Ej cells were transfected with pBAGpMel and pBagppMel and the clones expressing neomycin resistance were isolated. Three clones containing the premelittin gene were isolated: Pre Melittin 1, Pre Melittin 4, and Pre Melittin 6. Two clones containing prepromelittin were isolated: Pre Pro Melittin 1, and Pre Pro Melittin 5.
The human bladder carcinoma derived cell line, EJ, gives tumours upon injection into immuno compromised nude mice which grow progressively larger (FIGS. 9A–9G). The stable clones of Ej cells carrying the melittin or cecropin expression constructs obtained as described above were tested for their tumorigenicity in nude ice.

HIV LTR = assay: HIV LTR-luciferase reporter (HIV-luc) supertransfected into EJ derived cell clones, with or without Tat; assay type: cell-based; settings: in the presence of Tat, FIGS. 11 and 12
Text: EJ derived cell clones carrying the melittin or cecropin expression vector or the parental. BAG vector, not carrying a therapeutic gene, were supertransfected with an indicator construct carrying the HIV LTR (and thus the HIV promoter) linked to a firefly luciferase reporter gene (HIV-luc) in the absence or presence of a separate construct expressing Tat. In the absence of Tat there was little luciferase activity detectable from the HIV-luc construct in all cell clones as expected since the HIV promoter requires Tat for its activity. […] Thus the production of HIV from infected cells will be inhibited by the antimicrobial peptide gene carrying therapeutic-retroviral vector. This effect is expected to lead to a lack of virus production from HIV infected cells.

## CC[C@H](C)[C@H](NC(=O)CN)C(=O)NCC(=O)N[C@@H](C)C(=O)N[C@H](C(=O)N[C@@H](CC(C)C)C(=O)N[C@@H](CCCCN)C(=O)N[C@H](C(=O)N[C@@H](CC(C)C)C(=O)N[C@H](C(=O)N[C@H](C(=O)NCC(=O)N[C@@H](CC(C)C)C(=O)N1CCC[C@H]1C(=O)N[C@@H](C)C(=O)N[C@@H](CC(C)C)C(=O)N[C@H](C(=O)N[C@@H](CO)C(=O)N[C@@H](Cc1c[nH]c2ccccc12)C(=O)N[C@H](C(=O)N[C@@H](CCCCN)C(=O)N[C@@H](CCCNC(=N)N)C(=O)N[C@@H](CCCCN)C(=O)N[C@@H](CCCNC(=N)N)C(=O)N[C@@H](CCC(N)=O)C(=O)N[C@@H](CCC(N)=O)C(N)=O)[C@@H](C)CC)[C@@H](C)CC)[C@@H](C)O)[C@@H](C)O)C(C)C)C(C)C [melittin]
cancer
  anti-cancer activity: selective anti-cancer
HIV
  anti-HIV activity: anti-HIV activity

## Cecropin A
Mammalian cells
  ill effects for mammalian cells: without any apparent ill effects
bacteria
  antibacterial activity: specific antibacterial activity

## Cecropin B
Mammalian cells
  ill effects for mammalian cells: without any apparent ill effects
[1]
  anticancer activity against tumour cell lines: anticancer activity
bacteria
  antibacterial activity: specific antibacterial activity

## cecropin
MMTV LTR
  effect on expression from MMTV LTR luciferase reporter: downregulatory effect
[2]
  rate of tumour growth in mice: reduced rate of tumour growth
HIV LTR
  luciferase expression from HIV-luc: little luciferase expression
